The record followed here is patent US20240123079A1 (Seagen Inc., priority 2021, published 2024).

In one assay the test system is THP1-Dual™ reporter cells. Put plainly: THP1-Dual cell reporter assay (IRF-Lucia luciferase reporter). Type of assay: cell-based, human. Particulars: ADCs: drug linker conjugated to a targeted mAb, 48 h. As to the method: THP1-Dual™ Cell Reporter Assay
Potency of compounds and ADCs was evaluated using the THP1-Dual™ cells (InvivoGen PN: thpd-nfis [also referred to as THP1 dual reporter cells]), which contain an IRF-Lucia luciferase reporter. Cells were cultured in RPMI-1640 (Gibco) with 10% heat-inactivated fetal bovine serum, Pen-Strep (100 U/mL-100 μg/mL, Gibco), HEPES (10 mM, Gibco)), sodium pyruvate (1 mM, Gibco), MEM non-essential amino acids (1×, Gibco), GlutaMAX (1×, Gibco), and beta-mercaptoethanol (55 μM, Gibco). Cells were plated in a 96-well flat bottom tissue culture-treated clear polystyrene plate (Corning Costar #3596) at ˜100,000 cells per well in 200 μL with the indicated concentration of the compound or ADC. The supernatant was harvested at 24 hours (compounds) or 48 hours (ADC) post plating for the reporter assay, or as indicated. To measure Lucia reporter signal, 10 μL of the supernatant was combined with 40 μL of QUANTI-Luc™ Luminescence assay reagent (Invivogen PN: rep-qlc1) in a 96-well clear flat bottom tissue culture-treated black polystyrene plate (Corning Costar #3603) and read on a Perkin Elmer Envision plate reader.
STING agonist compounds were assessed for their ability to activate THP1-Dual™ reporter cells, a human monocytic cell line in which type I interferon (IRF) signaling can be monitored via a secreted luciferase reporter protein (Lucia). THP1-Dual™ cells were treated with increasing concentrations of the agonists for 24h, then supernatants were harvested and the Lucia reporter signal was quantified using QUANTI-Luc™ Luminescence assay reagent.
Consider `CCc1nc(C)sc1C(=O)Nc1nc2cc(C(N)=O)cc(OCCCN(C)C(=O)CCN3C(=O)C=CC3=O)c2n1C/C=C/Cn1c(NC(=O)c2cc(C)nn2CC)nc2cc(C(N)=O)cc(OC)c21` [Compound 111], for which the “EC50” value came out at 13.2 ng/mL.
For `CCn1nc(C)cc1C(=O)Nc1nc2cc(C(N)=O)cc(OC)c2n1C/C=C/Cn1c(NC(=O)c2cc(C)nn2CC)nc2cc(C(N)=O)cc(OCCCN(C)C(=O)[C@H](CO)NC(=O)CCN3C(=O)C=CC3=O)c21` [Compound 24, (S,E)-1-(4-(5-carbamoyl-2-(1-ethyl-3-methyl-1H-pyrazole-5-carboxamido)-7-methoxy-1H-benzo[d]imidazol-1-yl)but-2-en-1-yl)-7-(3-(2-(3-(2,5-dioxo-2,5-dihydro-1H-pyrrol-1-yl)propanamido)-3-hydroxy-N-methylpropanamido)propoxy)-2-(1-ethyl-3-methyl-1H-pyrazole-5-carboxamido)-1H-benzo[d]imidazole-5-carboxamide], the “EC50” value is 2.1 ng/mL.
Turning to `CCn1nc(C)cc1C(=O)Nc1nc2cc(C(=O)OC)cc(OC)c2n1C/C=C/Cn1c(NC(=O)c2cc(C)nn2CC)nc2cc(C(=O)OC)cc(OCCCN(C)C(=O)OCc3ccc(O[C@@H]4O[C@H](C(=O)O)[C@@H](O)[C@H](O)[C@H]4O)cc3NC(=O)CCNC(=O)CCN3C(=O)C=CC3=O)c21` [Compound 67], the “EC50 (ng/mL)” value was >10,000 ng/mL.
With `CCn1nc(C)cc1C(=O)Nc1nc2cc(C(N)=O)cc(OC)c2n1C/C=C/Cn1c(NC(=O)c2c(C)cnn2C)nc2cc(C(N)=O)cc(OCCCN(C)C(=O)CCN3C(=O)C=CC3=O)c21` [Compound 110], the “EC50 (ng/mL)” value was >10,000 ng/mL.
With `CCn1nc(C)cc1C(=O)Nc1nc2cc(S(N)(=O)=O)ccc2n1C/C=C/Cn1c(NC(=O)c2cc(C)nn2C)nc2cc(C(N)=O)cc(OCCCN(C)C(=O)CCN3C(=O)C=CC3=O)c21` [Compound 148, (E)-2-(1,3-dimethyl-1H-pyrazole-5-carboxamido)-7-(3-(3-(2,5-dioxo-2,5-dihydro-1H-pyrrol-1-yl)-N-methylpropanamido)propoxy)-1-(4-(2-(1-ethyl-3-methyl-1H-pyrazole-5-carboxamido)-5-sulfamoyl-1H-benzo[d]imidazol-1-yl)but-2-en-1-yl)-1H-benzo[d]imidazole-5-carboxamide], the “EC50 (ng/mL)” value was >10,000 ng/mL.

Staying with this assay, now noted: Homo sapiens, THP1-Dual; free compounds, 24 h, Lucia reporter signal; read-out: EC50.
`CCn1nc(C)cc1C(=O)Nc1nc2cc(C(N)=O)cc(OC)c2n1C/C=C/Cn1c(NC(=O)c2cc(C)nn2CC)nc2cc(C(N)=O)cc(OCCCN(C)C(=O)[C@H](CO)NC(=O)CCN3C(=O)C=CC3=O)c21` [Compound 24, (S,E)-1-(4-(5-carbamoyl-2-(1-ethyl-3-methyl-1H-pyrazole-5-carboxamido)-7-methoxy-1H-benzo[d]imidazol-1-yl)but-2-en-1-yl)-7-(3-(2-(3-(2,5-dioxo-2,5-dihydro-1H-pyrrol-1-yl)propanamido)-3-hydroxy-N-methylpropanamido)propoxy)-2-(1-ethyl-3-methyl-1H-pyrazole-5-carboxamido)-1H-benzo[d]imidazole-5-carboxamide]: the concentration for a half-maximal effect (EC50) stood at 0.0833 µM.
For `CCn1nc(C)cc1C(=O)Nc1nc2cc(S(N)(=O)=O)ccc2n1C/C=C/Cn1c(NC(=O)c2cc(C)nn2C)nc2cc(C(N)=O)cc(OCCCNC)c21` [Compound 139], the EC50 was > 4 µM.
The same measure, in the same setting: as for `CCn1nc(C)cc1C(=O)Nc1nc2cc(C(N)=O)cc(OC)c2n1C/C=C/Cn1c(NC(=O)c2cc(C)ns2)nc2cc(C(N)=O)cc(OCCCNC)c21` [Compound 83], the figure is > 10 µM.
`CCn1nc(C)cc1C(=O)Nc1nc2cc(S(N)(=O)=O)ccc2n1C/C=C/Cn1c(NC(=O)c2cc(C)nn2C)nc2cc(C(N)=O)cc(OCCC3CNC3)c21` [Compound 136, (E)-7-(2-(azetidin-3-yl)ethoxy)-2-(1,3-dimethyl-1H-pyrazole-5-carboxamido)-1-(4-(2-(1-ethyl-3-methyl-1H-pyrazole-5-carboxamido)-5-sulfamoyl-1H-benzo[d]imidazol-1-yl)but-2-en-1-yl)-1H-benzo[d]imidazole-5-carboxamide]: the EC50 is > 5 µM.
Same read-out and setting: as for `COc1cc(C(N)=O)cc2nc(NC(=O)c3cc(C)on3)n(C/C=C/Cn3c(NC(=O)c4cc(C)on4)nc4cc(C(N)=O)cc(O)c43)c12` [Compound 39], the figure is > 10 µM; as for `CCn1nc(C)cc1C(=O)Nc1nc2cc(C(N)=O)cc(OC)c2n1C/C=C/Cn1c(NC(=O)c2ccnn2CC)nc2cc(C(N)=O)cc(OCCCNC)c21` [Compound 91], 0.35 µM.
As to `CC[C@H](C)[C@H](N)C(=O)N(C)CCCOc1cc(C(N)=O)cc2nc(NC(=O)c3cc(C)nn3CC)n(C/C=C/Cn3c(NC(=O)c4cc(C)nn4CC)nc4cc(C(N)=O)cc(OC)c43)c12` [Compound 115], the EC50 was 0.0174 µM.
In the case of `COc1cc(C(N)=O)cc2nc(NC(=O)c3ccco3)n(C/C=C/Cn3c(NC(=O)c4ccco4)nc4cc(C(N)=O)cc(O)c43)c12` [Compound 33], the EC50 was > 10 µM.
Same read-out and setting: the result for `CCn1nc(C)cc1C(=O)Nc1nc2cc(S(=O)(=O)NC)ccc2n1C/C=C/Cn1c(NC(=O)c2cc(C)nn2CC)nc2cc(C(N)=O)cc(OCCCNC)c21` [Compound 128a] reads > 10 µM; that for `CCn1nc(C)cc1C(=O)Nc1nc2cc(C(N)=O)cc(OC)c2n1C/C=C/Cn1c(NC(=O)c2cc(C)nn2CC)nc2cc(C(N)=O)cc(OCCCN(C)C(=O)CNC(=O)CCN3C(=O)CC(SC[C@H](N)C(=O)O)C3=O)c21` (some centres unmarked) [Compound 73], 0.216 µM.
In the case of `CCn1nc(C)cc1C(=O)Nc1nc2cc(C(N)=O)cc(OC)c2n1C/C=C/Cn1c(NC(=O)c2cc(C)nn2CC)nc2cc(C(N)=O)cc(OCCCN(C)C(=O)[C@@H](N)Cc3ccccc3)c21` [Compound 116], the EC50 came out at 0.0116 µM.
On to `CCc1cc(C(=O)Nc2nc3cc(C(N)=O)cc(O)c3n2C/C=C/Cn2c(NC(=O)c3cc(CC)nn3C)nc3cc(C(N)=O)cc(OC)c32)n(C)n1` [Compound 53], for which the EC50 is > 10 µM.
As to `CCn1nc(C)cc1C(=O)Nc1nc2cc(C(N)=O)cc(O)c2n1C/C=C/Cn1c(NC(=O)c2cc(C)nn2CC)nc2cc(C(N)=O)cc(OCCCNC)c21` [Compound 15b], the EC50 was 0.0058 µM.
Still for that read-out and setting: as for `CCn1nc(C)cc1C(=O)Nc1nc2cc(C(N)=O)cc(OC)c2n1C/C=C/Cn1c(NC(=O)c2cc(C)on2)nc2cc(C(N)=O)cc(OCCCNC)c21` [Compound 81], the figure is > 10 µM.
On the same count and under the same terms, the result for `CCn1nc(C)cc1C(=O)Nc1nc2cc(C(N)=O)cc(OC)c2n1C/C=C/Cn1c(NC(=O)c2cc(C)nn2CC)nc2cc(C(N)=O)cc(OCCCN(C)C(=O)[C@@H](N)Cc3cn(C)cn3)c21` [Compound 119] reads 0.0499 µM; that for `CCn1nc(C)cc1C(=O)Nc1nc2cc(C(N)=O)cc(OC)c2n1C/C=C/Cn1c(NC(=O)c2cc(C)nn2C)nc2cc(C(N)=O)cc(OCCCOC3CNC3)c21` [Compound 142, (E)-7-(3-(azetidin-3-yloxy)propoxy)-1-(4-(5-carbamoyl-2-(1-ethyl-3-methyl-1H-pyrazole-5-carboxamido)-7-methoxy-1H-benzo[d]imidazol-1-yl)but-2-en-1-yl)-2-(1,3-dimethyl-1H-pyrazole-5-carboxamido)-1H-benzo[d]imidazole-5-carboxamide], 1.12 µM.
Consider `COc1cc(C(N)=O)cc2nc(NC(=O)c3cc(C)ns3)n(C/C=C/Cn3c(NC(=O)c4cc(C)ns4)nc4cc(C(N)=O)cc(O)c43)c12` [Compound 60], for which the EC50 was > 10 µM.
The same measure, in the same setting: the result for `COc1cc(C(N)=O)cc2nc(NC(=O)c3ccncn3)n(C/C=C/Cn3c(NC(=O)c4ccncn4)nc4cc(C(N)=O)cc(O)c43)c12` [Compound 45] reads > 10 µM; that for `COc1cc(C(N)=O)cc2nc(NC(=O)c3cccnn3)n(C/C=C/Cn3c(NC(=O)c4cccnn4)nc4cc(C(N)=O)cc(O)c43)c12` [Compound 42], > 10 µM.

The same assay, now with this note: conjugated to a targeted mAb, 48 h.
As to `CCn1nc(C)cc1C(=O)Nc1nc2cc(C(N)=O)cc(OC)c2n1C/C=C/Cn1c(NC(=O)c2cc(C)nn2CC)nc2cc(C(N)=O)cc(OCCCN(C)C(=O)OCc3ccc(O[C@@H]4O[C@H](C(=O)O)[C@@H](O)[C@H](O)[C@H]4O)cc3NC(=O)CCNC(=O)CCN3C(=O)C=CC3=O)c21` [Compound 13], the “potency of ADC relative to other ADC” value is “more potent”.

The same assay, now with this note: free drug.
As to `CCn1nc(C)cc1C(=O)Nc1nc2cc(C(N)=O)cc(O)c2n1C/C=C/Cn1c(NC(=O)c2cc(C)nn2CC)nc2cc(C(N)=O)cc(OCCCNC)c21` [Compound 15b], the “potency relative to other free compound” value was “more potent than 12a”.
